Patent publication US20140193454A1, “METHOD FROM PREPARING CERIPORIA LACERATA CULTURE EXTRACT AND PHARMACEUTICAL COMPOSITION FOR PREVENTION OR TREATMENT OF DIABETES AND DIABETIC COMPLICATIONS COMPRISING CERIPORIA LACERATA CULTURE EXTRACT AS ACTIVE INGREDIENT” (priority 2013, published 2014)

Key:
Assay type in all cases: in vivo
[1] = tested on: C57BL/Ksj (BL/Ls) homozygous diabetic (db/db) mice; assay: Organ weight of db/db mice after 6-week oral administration; settings: 300 mg/kg orally every day, 6 weeks
Experimental: In the animals, as the leptin receptor decreases, the signaling ability decreases, and thus the blood glucose level increases. The animals are recognized as an insulin-independent diabetes model and suitable for the evaluation and comparison of experimental results on the basis of raw data. For these reason, these db/db mice were selected in this experiment. […] The mice were acclimated for about 7 days, and the weight and blood glucose level thereof were measured. 30 healthy animals suitable for experimentation and having no abnormal general conditions were selected. The experimental animals were divided according to a randomized block design into a negative control group, an exopolysaccharide low-dose group (150 mg/kg), an exopolysaccharide high-dose group (300 mg/kg) and a positive control group (metformin-300 mg/kg) such that the blood glucose level and weight are equal between the groups. These mice were reared for 6 weeks. In addition, normal and control groups, each consisting of 6 animals, were kept for 6 weeks under the same conditions. All test substances and positive control substances were orally administered at the same point of time every day, and the normal and negative control groups were orally administered with water (FIG. 11). During the rearing period of 6 week, a change in the weight was measured once weekly. In order to examine a change in the blood glucose level, the tail vein blood glucose level was measured using ACCU-CHEK Sensor (Germany) once weekly after 12-hr fasting. The experimental animals were fed with a commercially available animal solid feed (Samtaco Co. Ltd., Korea) and allowed access to water ad libitum. The animals were reared under the conditions of temperature of 23±3° C. and relative humidity of 50±10% with a 12-hr light/12-hr dark cycle (lighting: a.m. 8 to p.m. 8). For sacrifice of the experimental animals, all the animals were fasted for 12 hours and anesthetized with ether. Blood was taken from the saphenous vein and placed in a tube for serum separation. Then, the blood was centrifuged at 3,000 rpm for 20 minutes to obtain serum which was to be used as a sample for analysis of biochemical markers. Immediately after sacrifice, the liver, abdominal fat and the like were extracted from all the animals, weighed, fast-frozen at -80° C. and stored until use. Portions of the extracted liver and pancreas were fixed in 4% paraformaldehyde solution and subjected to histological analysis.

[2] = tested on: C57BL/Ksj (BL/Ls) homozygous diabetic (db/db) mice; assay: Changes in food intake, water intake and weight of db/db mice over 6 weeks; settings: 300 mg/kg, versus other groups
Description: (§1) In order to examine the blood glucose lowering effects of the Ceriporia lacerata culture and exopolysaccharide, C57BL/Ksj (BL/Ls) homozygous diabetic (db/db) mice (SPF) as a typical type 2 diabetes animal model were used in this experiment. db/db mice are animals in which diabetes is caused by a point mutation in the leptin receptor gene Lepr of chromosome 4. In the animals, as the leptin receptor decreases, the signaling ability decreases, and thus the blood glucose level increases. The animals are recognized as an insulin-independent diabetes model and suitable for the evaluation and comparison of experimental results on the basis of raw data. For these reason, these db/db mice were selected in this experiment. The db/db mice used in this study were 6-week-old male mice weighing about 30-40 g, and these mice were produced in Japan SLC Inc. and obtained from Central Laboratory Animal (Korea). The mice were acclimated for about 7 days, and the weight and blood glucose level thereof were measured. 30 healthy animals suitable for experimentation and having no abnormal general conditions were selected. […] During the rearing period of 6 week, a change in the weight was measured once weekly. In order to examine a change in the blood glucose level, the tail vein blood glucose level was measured using ACCU-CHEK Sensor (Germany) once weekly after 12-hr fasting. […]

[3] = tested on: C57BL/Ksj (BL/Ls) homozygous diabetic (db/db) mice; assay: Weekly tail vein blood glucose level after 12-hr fasting; settings: after 3 weeks (diabetes control about 400 mg/dL)
Description: as §1

CN(C)C(=N)N=C(N)N [MET, metformin]
Abdominal fat (W/BW) [1]: 2.564 ± 0.33 W/BW | Kidney (W/BW) [1]: 0.39 ± 0.03 W/BW | Kidney fat (W/BW) [1]: 0.89 ± 0.13 W/BW | Liver (W/BW) [1]: 2.60 ± 0.19 W/BW | Spleen (W/BW) [1]: 0.03 ± 0.02 W/BW | feed intake [2]: significantly lower | water intake [2]: significantly lower | blood glucose level after 12-hr fasting [3]: no increase in the blood glucose level
